Tests used:
MAGL = target: T1, MAGL (Mus musculus, UniProt O35678); test: In vitro competitive activity-based protein profiling, mouse MAGL; type: biochemical; settings: for inhibition at 1 µM: read-out: MAGL % inh. 1 μM (mouse)
T1 construct: mouse brain membrane fraction or cell lysates for mouse assays; from tissue
T1 sequence (O35678 1-303): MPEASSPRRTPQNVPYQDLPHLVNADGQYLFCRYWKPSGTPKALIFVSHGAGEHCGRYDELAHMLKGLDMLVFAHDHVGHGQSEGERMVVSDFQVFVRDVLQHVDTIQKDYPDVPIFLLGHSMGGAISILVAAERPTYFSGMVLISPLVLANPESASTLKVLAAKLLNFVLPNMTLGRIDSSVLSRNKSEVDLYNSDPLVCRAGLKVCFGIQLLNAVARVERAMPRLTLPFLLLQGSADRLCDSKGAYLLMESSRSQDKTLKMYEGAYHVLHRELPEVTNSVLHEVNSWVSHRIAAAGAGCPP
Summary of the method: (§1)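 Activity measured as fluorescent gel-band intensity of MAGL and FAAH after SDS-PAGE. Before labelling with FP-Rh or HT-01 (30 min, 37 °C), proteomes at 1.0 mg/mL (mouse brain membrane or lysates; human prefrontal cortex or cell membranes) were exposed to varying inhibitor concentrations for 30 min at 37 °C.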

FAAH = target: T2, FAAH (Mus musculus, UniProt O08914); test: In vitro competitive activity-based protein profiling, mouse FAAH; type: biochemical; settings: for inhibition at 1 µM: read-out: FAAH % inh. 1 μM (mouse)
T2 construct: mouse brain membrane fraction or cell lysates for mouse assays; from tissue
T2 sequence (O08914 1-579): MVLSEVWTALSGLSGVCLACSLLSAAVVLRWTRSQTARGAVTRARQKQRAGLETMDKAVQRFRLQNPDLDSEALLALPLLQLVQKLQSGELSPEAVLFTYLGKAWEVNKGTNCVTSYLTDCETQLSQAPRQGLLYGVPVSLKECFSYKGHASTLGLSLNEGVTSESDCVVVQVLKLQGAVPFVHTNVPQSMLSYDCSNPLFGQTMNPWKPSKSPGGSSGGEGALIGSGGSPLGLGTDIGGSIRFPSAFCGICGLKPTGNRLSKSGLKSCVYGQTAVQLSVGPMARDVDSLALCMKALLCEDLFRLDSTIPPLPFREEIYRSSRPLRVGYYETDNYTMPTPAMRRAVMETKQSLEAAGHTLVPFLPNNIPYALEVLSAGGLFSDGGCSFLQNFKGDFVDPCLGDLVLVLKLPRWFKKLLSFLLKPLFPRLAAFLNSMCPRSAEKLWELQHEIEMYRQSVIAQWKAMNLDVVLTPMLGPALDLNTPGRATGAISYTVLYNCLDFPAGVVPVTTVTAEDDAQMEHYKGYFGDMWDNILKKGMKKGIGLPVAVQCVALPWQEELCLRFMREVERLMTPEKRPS
Summary of the method: as §1

Compound | IC50 (MAGL) [nM] | inhibition at 1 µM (MAGL) [%] | IC50 (FAAH) [nM] | inhibition at 1 µM (FAAH; 1 μM) [%] | MAGL % inh. 1 μM (mouse) (MAGL) | FAAH % inh. 1 μM (mouse) (FAAH; 1 μM)
O=C(N1C[C@H]2C[C@H](NCc3ccc(Cl)cc3)C[C@H]2C1)n1cc(Cl)cn1 [Example 73, (4-chloro-1H-pyrazol-1-yl)(trans-5-((4-chlorobenzyl)amino)hexahydrocyclopenta[c]pyrrol-2(1H)-yl)methanone] | 100 to 1000 | ≥ 75 | ≤ 100 | ≥ 75 |  | 
CC(=O)N(Cc1cccc(Cl)c1)[C@H]1C[C@@H]2CN(C(=O)n3cc(Cl)cn3)C[C@@H]2C1 [Example 74, N-(trans-2-(4-chloro-1H-pyrazole-1-carbonyl)octahydrocyclopenta[c]pyrrol-5-yl)-N-(3-chlorobenzyl)acetamide] |  | ≥ 75 |  | ≥ 75 |  | 
O=C(N1C[C@H]2C[C@H](NCc3cccc(Cl)c3)C[C@H]2C1)n1cc(Cl)cn1 [Example 75, (4-chloro-1H-pyrazol-1-yl)(trans-5-((3-chlorobenzyl)amino)hexahydrocyclopenta[c]pyrrol-2(1H)-yl)methanone] | ≤ 100 | ≥ 75 | ≤ 100 | ≥ 75 |  | 
CN(Cc1ccc(C(F)(F)F)cc1)[C@@H]1C[C@@H]2CN(C(=O)n3cc(Cl)cn3)C[C@@H]2C1 [Example 76, (4-chloro-1H-pyrazol-1-yl)(cis-5-(methyl(4-(trifluoromethyl)benzyl)amino)hexahydrocyclopenta[c]pyrrol-2(1H)-yl)methanone] | ≤ 100 | ≥ 75 | ≤ 100 | ≥ 75 |  | 
CN(Cc1ccc(N2CCOCC2)cc1)[C@@H]1C[C@@H]2CN(C(=O)n3cc(Cl)cn3)C[C@@H]2C1 [Example 77, (4-chloro-1H-pyrazol-1-yl)(cis-5-(methyl(4-morpholinobenzyl)amino)hexahydrocyclopenta[c]pyrrol-2(1H)-yl)methanone] | 1000 to 10000 | 50 to 75 | 100 to 1000 | ≥ 75 |  | 
CN(Cc1ccc(C(F)(F)F)cc1)[C@H]1C[C@@H]2CN(C(=O)n3cc(Cl)cn3)C[C@@H]2C1 [Example 78, (4-chloro-1H-pyrazol-1-yl)(trans-5-(methyl(4-(trifluoromethyl)benzyl)amino)hexahydrocyclopenta[c]pyrrol-2(1H)-yl)methanone] | ≤ 100 | ≥ 75 | ≤ 100 | ≥ 75 |  | 
CN(Cc1ccc(N2CCOCC2)cc1)[C@H]1C[C@@H]2CN(C(=O)n3cc(Cl)cn3)C[C@@H]2C1 [Example 79, (4-chloro-1H-pyrazol-1-yl)(trans-5-(methyl(4-morpholinobenzyl)amino)hexahydrocyclopenta[c]pyrrol-2(1H)-yl)methanone] |  | 50 to 75 |  | ≥ 75 |  | 
CN(Cc1cccc(C(F)(F)F)c1)[C@@H]1C[C@@H]2CN(C(=O)n3cc(Cl)cn3)C[C@@H]2C1 [Example 80, (4-chloro-1H-pyrazol-1-yl)(cis-5-(methyl(3-(trifluoromethyl)benzyl)amino)hexahydrocyclopenta[c]pyrrol-2(1H)-yl)methanone] | ≤ 100 | ≥ 75 | ≤ 100 | ≥ 75 |  | 
CN(Cc1cccc(N2CCOCC2)c1)[C@@H]1C[C@@H]2CN(C(=O)n3cc(Cl)cn3)C[C@@H]2C1 [Example 81, (4-chloro-1H-pyrazol-1-yl)(cis-5-(methyl(3-morpholinobenzyl)amino)hexahydrocyclopenta[c]pyrrol-2(1H)-yl)methanone] | 1000 to 10000 | 25 to 50 | ≤ 100 | ≥ 75 |  | 
CN(Cc1cccc(N2CCOCC2)c1)[C@H]1C[C@@H]2CN(C(=O)n3cc(Cl)cn3)C[C@@H]2C1 [Example 82, (4-chloro-1H-pyrazol-1-yl)(trans-5-(methyl(3-morpholinobenzyl)amino)hexahydrocyclopenta[c]pyrrol-2(1H)-yl)methanone] | 100 to 1000 | ≥ 75 | 100 to 1000 | ≥ 75 |  | 
CN(Cc1cccc(C(F)(F)F)c1)[C@H]1C[C@@H]2CN(C(=O)n3cc(Cl)cn3)C[C@@H]2C1 [Example 83, (4-chloro-1H-pyrazol-1-yl)(trans-5-(methyl(3-(trifluoromethyl)benzyl)amino)hexahydrocyclopenta[c]pyrrol-2(1H)-yl)methanone] | ≤ 100 | ≥ 75 | ≤ 100 | ≥ 75 |  | 
CNC(=O)c1cnn(C(=O)N2C[C@H]3C[C@@H](N(C)Cc4ccccc4Cl)C[C@H]3C2)c1 [Example 84, 1-(cis-5-((2-chlorobenzyl)(methyl)amino)octahydrocyclopenta[c]pyrrole-2-carbonyl)-N-methyl-1H-pyrazole-4-carboxamide] |  |  |  |  | A (% inhibition greater than or equal to 75%) | A (% inhibition greater than or equal to 75%)
CN(Cc1ccccc1Cl)[C@@H]1C[C@@H]2CN(C(=O)n3cc(C(=O)N4CCOCC4)cn3)C[C@@H]2C1 [Example 85, (cis-5-((2-chlorobenzyl)(methyl)amino)hexahydrocyclopenta[c]pyrrol-2(1H)-yl)(4-(morpholine-4-carbonyl)-1H-pyrazol-1-yl)methanone] |  | 50 to 75 |  | ≥ 75 |  | 
CN(Cc1ccccc1Cl)[C@H]1C[C@@H]2CN(C(=O)n3cc(C(=O)N4CCOCC4)cn3)C[C@@H]2C1 [Example 86, (trans-5-((2-chlorobenzyl)(methyl)amino)hexahydrocyclopenta[c]pyrrol-2(1H)-yl)(4-(morpholine-4-carbonyl)-1H-pyrazol-1-yl)methanone] |  | 50 to 75 |  | ≥ 75 |  | 
CN(Cc1ccccc1Cl)[C@@H]1C[C@@H]2CN(C(=O)n3cc(C(=O)N4CCN(C5CC5)CC4)cn3)C[C@@H]2C1 [Example 87, (cis-5-((2-chlorobenzyl)(methyl)amino)hexahydrocyclopenta[c]pyrrol-2(1H)-yl)(4-(4-cyclopropylpiperazine-1-carbonyl)-1H-pyrazol-1-yl)methanone] |  | 25 to 50 |  | 0 to 25 |  | 
CN(Cc1ccccc1Cl)[C@@H]1C[C@@H]2CN(C(=O)n3cc(C(=O)N4CCCC4)cn3)C[C@@H]2C1 [Example 89, (cis-5-((2-chlorobenzyl)(methyl)amino)hexahydrocyclopenta[c]pyrrol-2(1H)-yl)(4-(pyrrolidine-1-carbonyl)-1H-pyrazol-1-yl)methanone] |  |  |  | ≥ 75 | C (% inhibition greater than or equal to 25% and less than 50%) | 
CNC(=O)c1cnn(C(=O)N2C[C@H]3C[C@@H](N(C)Cc4ccccc4C(F)(F)F)C[C@H]3C2)c1 [Example 91, N-methyl-1-(cis-5-(methyl(2-(trifluoromethyl)benzyl)amino)octahydrocyclopenta[c]pyrrole-2-carbonyl)-1H-pyrazole-4-carboxamide] |  | 50 to 75 |  | ≥ 75 |  | 
CN(Cc1ccccc1C(F)(F)F)[C@@H]1C[C@@H]2CN(C(=O)n3cc(C(=O)N4CCCC4)cn3)C[C@@H]2C1 [Example 92, (cis-5-(methyl(2-(trifluoromethyl)benzyl)amino)hexahydrocyclopenta[c]pyrrol-2(1H)-yl)(4-(pyrrolidine-1-carbonyl)-1H-pyrazol-1-yl)methanone] |  | ≥ 75 |  | ≥ 75 |  | 
CN(Cc1ccccc1C(F)(F)F)[C@@H]1C[C@@H]2CN(C(=O)n3cc(C(=O)N4CCOCC4)cn3)C[C@@H]2C1 [Example 93, (cis-5-(methyl(2-(trifluoromethyl)benzyl)amino)hexahydrocyclopenta[c]pyrrol-2(1H)-yl)(4-(morpholine-4-carbonyl)-1H-pyrazol-1-yl)methanone] |  | 50 to 75 |  | ≥ 75 |  | 
CN(Cc1ccccc1C(F)(F)F)[C@@H]1C[C@@H]2CN(C(=O)n3cc(C(=O)N4CCN(C5CC5)CC4)cn3)C[C@@H]2C1 [Example 94, (4-cyclopropylpiperazin-1-yl)(1-(cis-5-(methyl(2-(trifluoromethyl)benzyl)amino)octahydrocyclopenta[c]pyrrole-2-carbonyl)-1H-pyrazol-4-yl)methanone] |  | ≥ 75 |  | 0 to 25 |  | 
